Test results from patent US8426202B2, “Cell culture medium” (Cellca GmbH, priority 2005, dated 2013).
Where “and” joins values, the source holds several entries; their conditions need not be identical. Equal values may be shown once. Read-outs that look alike come from different tables or passages of the source.

Columns and labels:
[1] = test system: CHO cell line that expresses an antibody; settings: fed-batch; substance 1 g/l; supernatant, ELISA; absolute value of the control set at 100%
Protocol: A CHO cell line that expresses an antibody was used for the experiments. The product concentration (antibody concentration) in the cell supernatant was determined by ELISA.
From selected samples, the product concentration (antibody concentration) in the supernatant was determined by ELISA (Table 3)

[2] = test system: CHO cell line that expresses an antibody; assay: Batch experiment with the substances according to the invention (Example 1); format: cell-based, Chinese hamster; settings: batch mode, substance 0.5-1 g/l, basal medium glucose 4.7 g/l, glutamine […]
[3] = test system: CHO cell line that expresses an antibody; assay: Fed-batch experiment with the substances according to the invention (Example 2, Table 2); format: cell-based, Chinese hamster
Excerpt: Feed took place at regular intervals.

[4] = test system: CHO cell line that expresses an antibody; settings: fed-batch, basal medium 4 mM glutamine, feed with 3 g/l Ala-Gln and 3 g/l Gly-Gln, substance 0.5-1 g/l
Protocol: (§1) A CHO cell line that expresses an antibody was used for the experiments.
The experiments were carried out either in batch mode or in fed-batch mode. When the process was carried out in fed-batch mode, the process was first started in batch mode in the above-mentioned basal medium and cells were cultivated in this manner for 1-4 days. After 1-4 days the cells were supplemented with a feed medium, i.e. the process was switched to fed-batch mode. Feed took place at regular intervals. In fed-batch experiments, a protein-free and serum-free feed medium from the company HyQ (R05.2 supplement, Cat. No.: SH30584.04, Lot No.: APF21457G) was used.
From the stock solutions, the substances were put at the desired final concentration in culture tubes. The various culture tubes prepared in this way were finally inoculated with the antibody-producing CHO-clone at a target inoculation cell concentration (1-3×10^5/ml). For this, the corresponding amount of inoculum cells was calculated and the required amount of inoculum cell suspension was centrifuged. […] In this way the desired inoculation cell concentration was adjusted in the cell suspension being investigated. The cell suspension thus prepared was proportioned in the culture tubes, which were provided with the substances according to the invention beforehand. The culture tubes were incubated at 37° C., and 8% CO2 atmosphere, with shaking. The culture tubes were cultivated for 8-11 days in the batch mode or in the fed-batch mode. Samples for offline measurement of the variables were taken from the culture vessels at regular intervals, for example daily or on every third day. The metabolic variables and cell concentrations of the samples were measured. Cell concentration and cell vitality were measured with a CeDex instrument. The metabolic variables (glucose, lactate, glutamine and ammonium) were determined with an analyzer (BioProfile 100).
(§2) The following final concentrations of the substances according to the invention were established in a nutrient medium after inoculation:
The substances according to the invention were tested under fed-batch conditions. […] The feed medium used was from the company HyQ (R05.2 supplement, Cat. No.: SH30584.04, Lot No.: APF21457G). 3 g/l alanyl-glutamine (Ala-Gin) and 3 g/l glycyl-glutamine (Gly-Gln) were added to the feed medium.

[5] = test system: CHO cell line that expresses an antibody; settings: fed-batch, glutamine-free basal and feed media, substance 0.5-1 g/l
Excerpt: as §1
This is a serum-free, protein-free nutrient medium. It is a ready-made, sterile-filtered nutrient medium.
After 1-4 days the cells were supplemented with a feed medium, i.e. the process was switched to fed-batch mode. Feed took place at regular intervals. In fed-batch experiments, a protein-free and serum-free feed medium from the company HyQ (R05.2 supplement, Cat. No.: SH30584.04, Lot No.: APF21457G) was used.
All substances (chemicals) used according to the invention were obtained from the company Sigma and stock solutions were prepared from them. From the stock solutions, the substances were put at the desired final concentration in culture tubes. The various culture tubes prepared in this way were finally inoculated with the antibody-producing CHO-clone at a target inoculation cell concentration (1-3×10^5/ml). For this, the corresponding amount of inoculum cells was calculated and the required amount of inoculum cell suspension was centrifuged. […] In this way the desired inoculation cell concentration was adjusted in the cell suspension being investigated. The cell suspension thus prepared was proportioned in the culture tubes, which were provided with the substances according to the invention beforehand. The culture tubes were incubated at 37° C., and 8% CO2 atmosphere, with shaking. The culture tubes were cultivated for 8-11 days in the batch mode or in the fed-batch mode. Samples for offline measurement of the variables were taken from the culture vessels at regular intervals, for example daily or on every third day. The metabolic variables and cell concentrations of the samples were measured. Cell concentration and cell vitality were measured with a CeDex instrument. The metabolic variables (glucose, lactate, glutamine and ammonium) were determined with an analyzer (BioProfile 100).
as §2
The substances according to the invention were tested under fed-batch conditions. […] The feed medium used was from the company HyQ (R05.2 supplement, Cat. No.: SH30584.04, Lot No.: APF21457G). The feed medium was glutamine-free (Table 4).

SMILES: O=C([O-])CCC(=O)[O-].[Na+].[Na+] [Sodium succinate]
- Antibody concentration [1]: 127%
- Gln ([2]; day 0): 1.53 mM
- Glucose ([2]; day 0): 4.69 g/L
- Lactate ([2]; day 0): 0 g/L
- NH4 ([2]; day 0): 1.22 mM
- Specific Glutamin consumption (Gln/VCD) ([2]; day 0): 1.49
- Specific ammonia production (NH4/VCD) ([2]; day 0): 1.18
- Specific glucose consumption (Gluc/VCD) ([2]; day 0): 4.55
- Specific lactate production (Lac/VCD) ([2]; day 0): 0.00
- Total Cell Density TCD ([2]; day 0): 1.07 E5/ml
- Viabil. ([2]; day 0): 96%
- Viable Cell Density (VCD) ([2]; day 0): 1.03 E5/ml
- Gln ([2]; day 3): 0.76 mM
- Glucose ([2]; day 3): 3.82 g/L
- Lactate ([2]; day 3): 0.86 g/L
- NH4 ([2]; day 3): 1.84 mM
- Specific Glutamin consumption (Gln/VCD) ([2]; day 3): 0.09
- Specific ammonia production (NH4/VCD) ([2]; day 3): 0.22
- Specific glucose consumption (Gluc/VCD) ([2]; day 3): 0.47
- Specific lactate production (Lac/VCD) ([2]; day 3): 0.10
- Total Cell Density TCD ([2]; day 3): 8.3 E5/ml
- Viabil. ([2]; day 3): 99%
- Viable Cell Density (VCD) ([2]; day 3): 8.2 E5/ml
- Gln ([2]; day 6): 0.31 mM
- Glucose ([2]; day 6): 2.4 g/L
- Lactate ([2]; day 6): 1.19 g/L
- NH4 ([2]; day 6): 2.25 mM
- Specific Glutamin consumption (Gln/VCD) ([2]; day 6): 0.01
- Specific ammonia production (NH4/VCD) ([2]; day 6): 0.05
- Specific glucose consumption (Gluc/VCD) ([2]; day 6): 0.05
- Specific lactate production (Lac/VCD) ([2]; day 6): 0.02
- Total Cell Density TCD ([2]; day 6): 49.1 E5/ml
- Viabil. ([2]; day 6): 98%
- Viable Cell Density (VCD) ([2]; day 6): 48.1 E5/ml
- Gln ([2]; day 8): 0.36 mM
- Glucose ([2]; day 8): 1.44 g/L
- Lactate ([2]; day 8): 1.14 g/L
- NH4 ([2]; day 8): 2.33 mM
- Specific Glutamin consumption (Gln/VCD) ([2]; day 8): 0.01
- Specific ammonia production (NH4/VCD) ([2]; day 8): 0.09
- Specific glucose consumption (Gluc/VCD) ([2]; day 8): 0.06
- Specific lactate production (Lac/VCD) ([2]; day 8): 0.04
- Total Cell Density TCD ([2]; day 8): 29.8 E5/ml
- Viabil. ([2]; day 8): 86%
- Viable Cell Density (VCD) ([2]; day 8): 25.6 E5/ml
- Gln ([2]; day 11): 0.52 mM
- Glucose ([2]; day 11): 0.22 g/L
- Lactate ([2]; day 11): 1.59 g/L
- NH4 ([2]; day 11): 3 mM
- Specific Glutamin consumption (Gln/VCD) ([2]; day 11): 0.03
- Specific ammonia production (NH4/VCD) ([2]; day 11): 0.18
- Specific glucose consumption (Gluc/VCD) ([2]; day 11): 0.01
- Specific lactate production (Lac/VCD) ([2]; day 11): 0.10
- Total Cell Density TCD ([2]; day 11): 32.8 E5/ml
- Viabil. ([2]; day 11): 50%
- Viable Cell Density (VCD) ([2]; day 11): 16.3 E5/ml
- Total Cell Density TCD ([3]; day 0, fed-batch): 1.5 E5/ml
- Viabil. ([3]; day 0, fed-batch): 91%
- Viable Cell Density (VCD) ([3]; day 0, fed-batch): 1.37 E5/ml
- Total Cell Density TCD ([3]; day 2, fed-batch): 4.2 E5/ml and 4.4 E5/ml
- Viabil. ([3]; day 2, fed-batch): 98%
- Viable Cell Density (VCD) ([3]; day 2, fed-batch): 4.1 E5/ml and 4.3 E5/ml
- Total Cell Density TCD ([3]; day 5, fed-batch): 18.1 E5/ml
- Viabil. ([3]; day 5, fed-batch): 97%
- Viable Cell Density (VCD) ([3]; day 5, fed-batch): 17.5 E5/ml
- Total Cell Density TCD ([3]; day 8, fed-batch): 62.2 E5/ml and 64.1 E5/ml
- Viabil. ([3]; day 8, fed-batch): 90% and 92%
- Viable Cell Density (VCD) ([3]; day 8, fed-batch): 55.7 E5/ml and 58.8 E5/ml
- Total Cell Density TCD ([4]; day 0): 1.1 E5/ml
- Viabil. ([4]; day 0): 96%
- Viable Cell Density (VCD) ([4]; day 0): 1.0 E5/ml
- Total Cell Density TCD ([4]; day 3): 9.3 E5/ml
- Viabil. ([4]; day 3): 95%
- Viable Cell Density (VCD) ([4]; day 3): 8.8 E5/ml
- Total Cell Density TCD ([4]; day 5): 56.7 E5/ml
- Viabil. ([4]; day 5): 96%
- Viable Cell Density (VCD) ([4]; day 5): 54.3 E5/ml
- Total Cell Density TCD ([4]; day 7): 42.0 E5/ml
- Viabil. ([4]; day 7): 82%
- Viable Cell Density (VCD) ([4]; day 7): 34.5 E5/ml
- Total Cell Density TCD ([4]; day 9): 35.9 E5/ml
- Viabil. ([4]; day 9): 74%
- Viable Cell Density (VCD) ([4]; day 9): 26.7 E5/ml
- Sp. Gluc cons. ([5]; day 0): 95
- Sp. NH4 prod ([5]; day 0): 98 % of control
- TCD ([5]; day 0): 100 % of control
- VCD ([5]; day 0): 100 % of control
- Viabil. ([5]; day 0): 94%
- Sp. Gluc cons. ([5]; day 3): 74
- Sp. Lactate prod. ([5]; day 3): 75 % of control
- Sp. NH4 prod ([5]; day 3): 72 % of control
- TCD ([5]; day 3): 124 % of control
- VCD ([5]; day 3): 132 % of control
- Viabil. ([5]; day 3): 95%
- Sp. Gluc cons. ([5]; day 5): 88
- Sp. Lactate prod. ([5]; day 5): 93 % of control
- Sp. NH4 prod ([5]; day 5): 90 % of control
- TCD ([5]; day 5): 108 % of control
- VCD ([5]; day 5): 111 % of control
- Viabil. ([5]; day 5): 95%
- Sp. Gluc cons. ([5]; day 7): 78
- Sp. Lactate prod. ([5]; day 7): 89 % of control
- Sp. NH4 prod ([5]; day 7): 85 % of control
- TCD ([5]; day 7): 118 % of control
- VCD ([5]; day 7): 117 % of control
- Viabil. ([5]; day 7): 87%
- Sp. Gluc cons. ([5]; day 9): 69
- Sp. Lactate prod. ([5]; day 9): 78 % of control
- Sp. NH4 prod ([5]; day 9): 74 % of control
- TCD ([5]; day 9): 134 % of control
- VCD ([5]; day 9): 136 % of control
- Viabil. ([5]; day 9): 94%
